Data on one molecule can be found in US5312831A, “Urethanes and ureas that induce cytokine production” (American Cyanamid Company, priority 1993, dated 1994).

Experiment [1] concerns bone marrow progenitor cells. Nature of the experiment: Delta assay: expansion of bone marrow progenitor cells in vitro, with c-kit ligand (KL). The experiment is classed as cell-based, mouse. The settings on record: for fold induction at 0.5 µg/mL: Mus musculus, Bone marrow cell, 168 h, 7 day in vitro incubation, read-out: Fold Increase in CFU.
Method: Delta Assay--Mice are treated with a single dose of 5-FU (150 mg/kg ip). Twenty-four hours later, bone marrow cells are removed and split into 2 aliquots. […] After 14 days, the number of colonies is determined (CFU-1). A second aliquot of cells is placed in liquid culture with single growth factors or drugs or combinations of each to assess the ability of these agents to expand the colony forming cell pool. After 7 days in liquid culture, these cells are harvested and plated in soft agar with IL-1 and GM-CSF as with the first aliquot. After 14 days the number of colonies in the second aliquot is determined (CFU-2). The ratio or delta is calculated as CFU-2/CFU-1 and this ratio is used to ascertain the ability of the growth factors and/or drugs used in the liquid phase to induce growth of the colony forming cells (CFU) or differentiation of pre-CFU to CFU.
Bone marrow cells from 5-FU treated mice are used to enrich for early progenitor cells. The cells are split into 2 aliquots as described in the methods section for the "delta assay." The fold increase is determined by measuring the effect of a 7 day in vitro incubation of the cells with tissue culture medium plus test compound and/or growth factor KL on colony forming dells (CFU). The number of CFUs are then compared with colony formation of the fresh bone marrow cells that were not incubated in vitro to determine the fold increase. Test compound is used in vitro at 0.5 μg/ml.
In experiment [2] the test system is IL-6. Briefly: Serum IL-6 in 5-FU treated monkeys. The class given is in vivo, cynomolgous monkeys. The method, then: Groups of 3 cynomolgous monkeys are treated with 5FU at 125 mg/kg and
beginning 24 hours later treated with test compound s.c. at 0.05 mg/kg.
The data reported are from sera taken 4 hours after test compound

Experiment [3] concerns IL-6. Briefly: Serum IL-6 production in mice after single s.c. injection (7TD1 bioassay). Conditions: serum 4 h post injection. The experiment is classed as in vivo, mouse. The method, then:
Description of Biological Assays Interleukin 6(IL-6) assay for structure function analysis--Test compounds are dissolved in water and administered subcutaneously in 0.2 ml to deliver a dose of 0.1-10 mg/kg. The less soluble compounds are first dissolved in 100% ethanol and then brought to the appropriate concentration in water. Four hours post injection, the mice are bled and the serum is retrieved. The IL-6 dependent cell line 7TDl is used to assay serial dilutions of sera for IL-6 content. 7TDl cells (1×10^4) are placed in microtiter wells and incubated at 37° C. for 72 hours with standard recombinant mouse IL-6 or with dilutions of serum to be tested. Over the last 6 hours, the cells are pulsed with ^3 H-Tdr (μci). Cells are then harvested and the degree of proliferation determined by the uptake of ^3 H-Tdr as measured by liquid scintillation spectrometry. The concentration of IL-6 in serum is calculated from standard curves utilizing recombinant IL-6 from R&D Systems Inc. and are reported in units of IL-6 activity as defined by the manufacturer.

Read-outs that look alike come from different tables or passages of the source.

Regarding `CCCCCCC(=O)N[C@@H](C(=O)O)[C@@H](C)OC(=O)N[C@@H](CCC[C@@H](N)C(=O)O)C(=O)N[C@H](C)C(=O)O` [Example 28, [R-(R*,R*)]-N-(R)-6-carboxy-N^2-[[2-carboxy-1-methyl-2-[(1-oxoheptyl)amino]ethoxy]carbonyl]-L-lysyl]-D-Alanine], the fold induction at 0.5 µg/mL in experiment [1] (KL + test compound (0.5 μg/ml)) was 158; in experiment [1] (test compound alone, 0.5 μg/ml, medium alone 0) it was 1.3. Moreover, the “synergy with c-kit ligand (KL) on growth of bone marrow progenitor cells (in words)” value in experiment [1] (in vitro) is listed as “acts synergistically”. Besides, the “Serum IL-6” value in experiment [2] (0.05 mg/kg s.c., 5FU 125 mg/kg, sera 4 hours after treatment, 5-FU only 0) was 2579 ± 318 Units/ml. Moreover, in experiment [2] (monkey, in vivo), the “IL-6 production in the serum of 5-FU treated primates (in words)” value was “induces IL-6 and GCSF production”. Besides, the values for the IL-6 in experiment [3] (0.1 mg/kg s.c.), in experiment [3] (1.0 mg/kg s.c.) and in experiment [3] (10.0 mg/kg s.c.) were 4802 ± 804 U/ml, 3844 ± 482 U/ml and 1718 U/ml, respectively.
